Laboratory results from publication PMC4237671 (Anesthesiology, 2014).
“Also recorded” adds a separate entry of the source. Read-outs that look alike come from different tables or passages of the source.

Tests used:
[1] = test system: dogs; assay: Loss of righting reflexes; format: in vivo, beagle dog
[2] = test system: dogs; format: in vivo, beagle dog
[3] = test system: dogs; assay: Pharmacodynamic modeling: plasma concentration vs anesthesia score; format: in vivo, beagle dog; conditions: bolus, n = 3 dogs; for γ (slope parameter): sigmoid Emax fit; for EC anesthesia score 3: venous plasma concentration when anesthesia score is 3
[4] = Stability testing of frozen formulated drug; format: physicochemical; conditions: 8 mg/ml in 20% sulfobutylether-β-cyclodextrin pH 7.4, stored frozen at -20°C
[5] = test system: rats; conditions: cited from earlier work
[6] = test system: rats; conditions: cited from earlier work; remark: listed apart in the source
[7] = test system: dogs; assay: Observation of myoclonus during and after hypnotic infusion; conditions: for Persistence of myoclonus in the postinfusion period: after 2-h infusions; for Incidence of myoclonus during infusion: for all studies
[8] = Pharmacokinetics after single IV bolus; conditions: for Co: back-extrapolated; for Plasma concentration range during anesthetic recovery: after IV bolus, approximate
[9] = Pharmacokinetics after single bolus followed by 2-h infusion
[10] = test system: adrenocortical responsiveness to ACTH1-24 stimulation; assay: Adrenocortical recovery after hypnotic infusion; conditions: for Plasma cortisol concentrations compared to vehicle group over time: after 2-h infusion, ACTH1-24 stimulated; for Shared Hill coefficient of in vivo adrenocortical concentration-response curves: both data sets fit to a single Hill coefficient
[11] = test system: dogs; assay: Pilot experiments of midazolam dosing in dogs; format: in vivo, beagle dog; conditions: 0.1 - 0.2 mg/kg intravenous bolus per dose
[12] = CPMM vs etomidate 2-h infusion study, n = 4 dogs per group
[13] = CPMM vs propofol 2-h infusion study, n = 4 dogs/group
[14] = IV bolus (CPMM 4 mg/kg, etomidate 2 mg/kg), n = 3 dogs
[15] = parent drug, IV bolus, n = 3 dogs
[16] = parent drug, IV bolus, n = 3 dogs, time zero to infinity
[17] = bolus followed by 2-h infusion, dogs
[18] = metabolite after IV bolus of parent, n = 3 dogs
[19] = metabolite, bolus followed by 2-h infusion of parent, n = 4 dogs

Q: What does the source list for “cyclopropyl-methoxycarbonyl metomidate [CPMM]”?
A: Duration of LoRR ([1]; 1 mg/kg IV bolus, n = 3 dogs): 1.8 ± 0.6 min; Duration of LoRR ([1]; 12 mg/kg IV bolus, n = 4 dogs): 10.9 ± 0.7 min; Relative hypnotic potency CPMM vs etomidate ([1]; dogs): half as potent; also recorded: approximately half that of etomidate; Bolus doses that induced LoRR in all dogs ([1]; dogs, IV bolus): ≥ 1 mg/kg; Slope of duration of LoRR vs logarithm of dose ([1]; dogs, IV bolus): 9.9; X-intercept of duration of LoRR vs logarithm of dose ([1]; dogs, IV bolus): 0.88 mg/kg; LoRR at lower doses ([1]; dogs, IV bolus 0.25 mg/kg or 0.5 mg/kg): failed to induce LoRR in any dog; Time to induction of LoRR ([1]; dogs, IV bolus at doses ≥1 mg/kg): < 15 s; ED50 for loss of righting reflexes ([1]; dogs, IV bolus, approximate value from Hill fit): ~ 0.8 mg/kg; Time to recover from anesthesia score 3 to score 0 ([2]; bolus followed by 2-h infusion): 8 ± 3 min; Time to recover from anesthesia score 3 to score 2 ([2]; bolus followed by 2-h infusion): 4.4 ± 1.3 min; Dependence of hypnotic recovery times on infusion duration ([2]; bolus vs bolus plus 2-h infusion): independent of infusion duration; Recovery times from anesthesia score 3 to all lower scores compared to etomidate ([2]; single bolus CPMM 4 mg/kg vs etomidate 2 mg/kg): significantly shorter; Time to recover from anesthesia score 3 to score 0 ([2]; single bolus only (4 mg/kg)): 11 ± 3 min; Time to recover from anesthesia score 3 to score 1 ([2]; single bolus only (4 mg/kg)): 5.5 ± 0.7 min; Time to recover from anesthesia score 3 to score 2 ([2]; single bolus only (4 mg/kg)): 4.3 ± 1.2 min; γ (slope parameter) [3]: 1.3 0.7 – 1.9; EC anesthesia score 3 [3]: 2,798 1,840 – 4,256 ng/ml; Stability of formulated drug [4]: no significant degradation over time; Hypnotic ED50 [5]: ~0.69 mg/kg; Slope of duration of hypnosis vs logarithm of dose [5]: 6.9; Hypnotic recovery time following 2-h continuous infusion [6]: 4.2 min; Dogs with myoclonus during infusion [7, 12]: 4 dogs; Dogs with myoclonus during infusion [7, 13]: all four dogs had myoclonus; Persistence of myoclonus in the postinfusion period ([7]; dogs): ceased within several minutes; Incidence of myoclonus during infusion [7]: 8/8; Plasma concentration in initial blood sample ([8]; 30 s after IV bolus (CPMM 4 mg/kg, etomidate 2 mg/kg), n = 3 dogs): 4,130 ± 640 ng/ml; Plasma concentration 10 min after administration [8, 14]: 330 ± 41 ng/mL; Co [8, 14]: 5,180 ± 1,120 ng/ml; Decrease of plasma concentration from initial to final blood sample (2 h) ([8]; IV bolus, dogs): decreased by four orders of magnitude; Plasma concentration at 10 min as percentage of initial blood sample ([8]; IV bolus, dogs): 8%; Plasma concentration range during anesthetic recovery ([8]; dogs): approximately 500 ng/ml; Normalized plasma concentration as percentage of that of etomidate ([8]; one hour after hypnotic bolus, dogs): 7%; CL [8, 15]: 211 ± 26 mL/min/kg; Vss [8, 15]: 1,880 ± 569 ml·kg^−1; t1/2 ([8]; parent drug, IV bolus, n = 3 dogs, apparent terminal half-life): 16.1 ± 2.99 min; AUC [8, 16]: 19,200 ± 2,590 min-ng ml^−1; Clearance relative to etomidate (fold higher) ([8]; single bolus, dogs): 14 X; Terminal elimination half-life relative to etomidate ([8]; single bolus, dogs): 27%; Vss relative to total body water volume in dogs (600 ml/kg) ([8]; single bolus, dogs): 3 X; Normalized plasma concentration as percentage of that of etomidate ([8]; ten minutes after hypnotic bolus, dogs): 33%; Decrease of plasma concentration from 30 to 60 min after the infusion ended [9, 17]: 22%; Half-life of decline beyond 30 min after infusion [9, 17]: ~ 90 min; Adrenal response to the second ACTH challenge compared to vehicle control ([10]; 180 min postinfusion, n = 4 dogs/group): normal adrenal response; Plasma cortisol concentrations compared to vehicle group over time ([10]; dogs): not significantly different from controls for all time points longer than 120 min after infusion termination; Half-time of adrenocortical recovery (normalized plasma cortisol) ([10]; after bolus plus 2-h infusion, n = 4 dogs): 215 min; Shared Hill coefficient of in vivo adrenocortical concentration-response curves [10]: -2.0; ACTH-stimulated plasma cortisol concentration, fold higher vs etomidate group ([10]; equivalent postinfusion time points after 2-h infusion, dogs): 4- to 27 fold; In vivo IC50 for suppression of adrenocortical responsiveness to ACTH1-24 ([10]; plasma hypnotic concentration, dogs, Hill fit, estimated): 0.027 µg/mL

Q: With `CC(c1ccccc1)n1cncc1C(=O)O` (centres unmarked) [Etomidate Metabolite] as the compound, how does the “Plasma concentration in final blood samples 120 min after administration” value ([8]; after etomidate 2 mg/kg bolus, dogs) read?
A: 708 ± 75 ng/mL

Q: What about the AUC [8, 18] of the same compound?
A: 236,000 ± 18,400 min·ng ml^−1

Q: What about the Cmax [8, 18] of the same compound?
A: 2,370 ± 347 ng·ml^−1

Q: What about the t1/2 [8, 18] of the same compound?
A: 61.4 ± 9.13 min

Q: What about the tmax [8, 18] of the same compound?
A: 18.3 ± 18.9 min

Q: And the Cmax [9, 19]?
A: 1,680 ±253 ng/ml

Q: What about the t1/2 [9, 19] of the same compound?
A: 69.3 ± 23.4 min

Q: Which results are given for `CCOC(=O)c1cncn1[C@H](C)c1ccccc1` [Etomidate, reference compound]?
A: Duration of LoRR ([1]; 0.5 mg/kg IV bolus, n = 3 dogs): 2.7 ± 0.8 min; Duration of LoRR ([1]; 1.9 mg/kg IV bolus, n = 3 dogs): 17 ± 5 min; Relative hypnotic potency CPMM vs etomidate ([1]; dogs): approximately twice as potent as CPMM; Bolus doses that induced LoRR in all dogs ([1]; dogs, IV bolus): 0.5 to 1.9 mg/kg; Slope of duration of LoRR vs logarithm of dose ([1]; dogs, IV bolus): 24; X-intercept of duration of LoRR vs logarithm of dose ([1]; dogs, IV bolus): 0.37 mg/kg; Time after bolus administration of anesthetic recovery ([2]; CPMM 4 mg/kg or etomidate 2 mg/kg bolus, see fig. 3B): 9.0 to 13.8 min; γ (slope parameter) [3]: 1.7 0.9 – 2.4; EC anesthesia score 1 ([3]; venous plasma concentration when anesthesia score is 1): 1,607 1,026 – 2,517 ng/ml; EC anesthesia score 3 [3]: 5,952 4,392 – 8,066 ng/ml; Dogs with myoclonus during infusion [7, 12]: 2 dogs; Persistence of myoclonus in the postinfusion period ([7]; dogs): up to approximately an hour; Incidence of myoclonus during infusion [7]: 2/4; Co [8, 14]: 10,700 ± 1,440 ng/ml; Decrease of plasma concentration from initial to final blood sample (2 h) ([8]; IV bolus, dogs): 1.5 orders of magnitude; Plasma concentration at 10 min as percentage of initial blood sample ([8]; IV bolus, dogs): 25%; Plasma concentration range during anesthetic recovery ([8]; dogs): approximately 1,000 ng/ml; concentration at 30 s ([8]; beagle, dog, in vivo, 2 mg/kg): 9080 ng/mL; concentration at 10 min ([8]; beagle, dog, in vivo, 2 mg/kg): 2230 ng/mL; AUC ([8]; beagle, dog, in vivo, iv, 2 mg/kg, AUC, parent drug, IV bolus, n = 3 dogs, time zero to infinity): 1930 ng·h/mL; AUC [8, 16]: 139,000 ± 26,300 min-ng ml^−1; Cmax ([9]; beagle, dog, in vivo): 2050 ng/mL; Plasma cortisol concentrations compared to vehicle group over time ([10]; dogs): remained significantly lower than those in the vehicle group throughout the duration of the study (>300 min); Shared Hill coefficient of in vivo adrenocortical concentration-response curves [10]: -2.0

Q: For `CC(C)c1cccc(C(C)C)c1O` [propofol], which “Dogs with myoclonus during infusion” value [7, 13] is on record?
A: two dogs had myoclonus

Q: With `Cc1ncc2n1-c1ccc(Cl)cc1C(c1ccccc1F)=NC2` [midazolam] as the compound, how does the Sedative effect [11] read?
A: no discernable sedative effect

Q: And the Effect on myoclonus ([7]; 0.1 - 0.2 mg/kg intravenous bolus per dose during 2-h hypnotic infusions, dogs)?
A: effectively reduced the myoclonus
